Results as given in ChEMBL document CHEMBL1201862, “PubChem BioAssay data set” (2004).
Calls of active or inactive are those of the source.

Tests used:
[1] = Trypanosoma cruzi growth suppression in host cells – NIH3T3 host cells, beta-gal luminescence, confirmation (AID 2044); assay type: functional, cell-based;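 note: intracellular parasites grown in NIH/3T3 mouse fibroblasts as host cells; luminescent beta-galactosidase reporter signal from transgenic T. cruzi replicating inside host cells; inhibitors lower the luminescence signal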
[2] = NIH3T3 cell viability loss – ATP luminescence, mouse fibroblasts, counter-screen, dose response (AID 2010); assay type: functional, cell-based;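 note: cells exposed to compound for about 90 hours before reading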
[3] = Luminescence Cell-Based Dose Retest to Confirm Inhibitors of Cancer Stem Cells. [Related pubchem assays (depositor defined):AID2717, AID2721]; assay type: functional; conditions: Homo sapiens
[4] = viability loss of HMLE_sh_eGFP cells – cell-based, luminescence, counter-screen for HMLE_sh_ECad selective toxicity project, dose response (AID 463074); assay type: functional, Homo sapiens;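 note: HMLE human mammary epithelial cells expressing control shRNA against eGFP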
[5] = target: Voltage-gated inwardly rectifying potassium channel KCNH2 (Homo sapiens, UniProt Q12809); conditions: Potency;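 note: confirmatory quantitative high-throughput screen measuring inhibition of hERG channel activity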
Chain of Voltage-gated inwardly rectifying potassium channel KCNH2 (Q12809 whole entry): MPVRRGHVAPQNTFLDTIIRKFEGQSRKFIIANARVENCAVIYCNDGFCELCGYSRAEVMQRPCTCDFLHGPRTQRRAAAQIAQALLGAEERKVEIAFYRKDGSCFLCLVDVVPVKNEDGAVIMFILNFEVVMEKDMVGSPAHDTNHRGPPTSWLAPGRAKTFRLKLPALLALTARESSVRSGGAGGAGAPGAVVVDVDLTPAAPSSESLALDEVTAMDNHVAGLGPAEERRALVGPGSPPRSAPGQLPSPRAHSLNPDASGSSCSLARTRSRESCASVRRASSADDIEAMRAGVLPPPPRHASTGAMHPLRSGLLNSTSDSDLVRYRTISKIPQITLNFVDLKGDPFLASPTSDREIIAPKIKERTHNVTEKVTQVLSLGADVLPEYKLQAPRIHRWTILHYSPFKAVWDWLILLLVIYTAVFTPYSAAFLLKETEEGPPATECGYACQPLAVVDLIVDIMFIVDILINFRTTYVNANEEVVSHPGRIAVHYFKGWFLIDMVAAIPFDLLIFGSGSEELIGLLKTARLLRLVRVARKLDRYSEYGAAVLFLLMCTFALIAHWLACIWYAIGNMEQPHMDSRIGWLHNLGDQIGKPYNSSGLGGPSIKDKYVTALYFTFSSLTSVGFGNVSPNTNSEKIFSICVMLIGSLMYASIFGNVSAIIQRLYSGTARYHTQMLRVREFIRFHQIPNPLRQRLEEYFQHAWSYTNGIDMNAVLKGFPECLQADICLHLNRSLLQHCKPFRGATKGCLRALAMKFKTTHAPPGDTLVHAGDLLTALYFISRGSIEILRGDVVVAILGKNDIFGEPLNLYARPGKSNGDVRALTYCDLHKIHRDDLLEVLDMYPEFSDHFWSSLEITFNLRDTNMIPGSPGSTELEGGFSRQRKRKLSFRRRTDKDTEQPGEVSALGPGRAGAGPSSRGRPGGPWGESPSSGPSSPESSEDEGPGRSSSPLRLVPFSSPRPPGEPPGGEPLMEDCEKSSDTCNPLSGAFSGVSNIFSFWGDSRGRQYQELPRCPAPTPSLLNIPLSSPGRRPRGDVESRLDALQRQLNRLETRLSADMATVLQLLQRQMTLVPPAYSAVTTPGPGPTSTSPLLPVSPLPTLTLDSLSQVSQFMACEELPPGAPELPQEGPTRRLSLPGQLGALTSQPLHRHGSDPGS

[6] = NIH-3T3 fibroblast cytotoxicity, dose response, cytotoxicity control, cell-based, fluorescence, Alamar Blue, secondary assay (AID 2327); assay type: functional;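 note: NIH-3T3 mouse fibroblasts cultured with fluconazole at 8 µg/mL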
cells [7] = assay type: functional, cell-based
[8] = fluconazole-exposed Candida albicans growth modulators – fluorescence, retest, confirmation (AID 2467); assay type: functional, cell-based
cells [9] = assay type: functional, cell-based; remark: listed apart in the source
[10] = target: T1, Serine/threonine-protein phosphatase (Candida dubliniensis (strain CD36 / CBS 7987 / NCPF 3949 / NRRLY-17841) (Yeast), UniProt B9W6M3); assay: blockers of CaCl2-induced CDRE-lacZ signaling – S. cerevisiae, luminescence, secondary, dose response (AID 2388); assay type: functional, cell-based;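 note: yeast reporter cells carrying a calcineurin-responsive lacZ construct stimulated with calcium chloride; luminescent beta-galactosidase reporter signal in whole cells rather than isolated phosphatase activity; potency for inhibition where a drop in reporter signal means calcineurin blockade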
T1 sequence (B9W6M3 whole entry): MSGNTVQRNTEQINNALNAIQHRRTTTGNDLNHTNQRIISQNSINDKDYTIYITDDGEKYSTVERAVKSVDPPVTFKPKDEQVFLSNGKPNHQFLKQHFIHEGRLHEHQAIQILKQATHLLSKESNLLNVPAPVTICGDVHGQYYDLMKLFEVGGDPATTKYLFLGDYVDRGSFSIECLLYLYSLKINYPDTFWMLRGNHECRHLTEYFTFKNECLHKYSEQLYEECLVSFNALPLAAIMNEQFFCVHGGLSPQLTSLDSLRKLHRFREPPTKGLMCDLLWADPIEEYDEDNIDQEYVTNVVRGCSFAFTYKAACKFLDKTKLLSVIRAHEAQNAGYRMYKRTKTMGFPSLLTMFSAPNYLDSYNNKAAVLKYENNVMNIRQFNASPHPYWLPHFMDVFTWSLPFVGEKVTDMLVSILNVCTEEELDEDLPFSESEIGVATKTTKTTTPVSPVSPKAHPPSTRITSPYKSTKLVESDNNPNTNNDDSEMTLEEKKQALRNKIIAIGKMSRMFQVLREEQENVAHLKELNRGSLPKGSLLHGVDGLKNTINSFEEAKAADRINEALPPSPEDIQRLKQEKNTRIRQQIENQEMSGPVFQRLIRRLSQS

[11] = target: Heat shock protein HSP 90-alpha (Homo sapiens, UniProt P07900); assay type: functional, organism-based
INS1 = assay: INS-1E survival protection against cytokine death – cell-based, luminescence, retest, dose response (AID 449756); assay type: functional; conditions: Rattus norvegicus;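 note: cell death triggered by IL-1 beta plus TNF-alpha plus IFN-gamma mixture; protective hits raise ATP signal compared with cytokine alone wells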
[12] = target: ATP-dependent molecular chaperone HSP82 (Candida albicans (strain WO-1) (Yeast), UniProt C4YTQ8); assay: steroid-induced GRE reporter decrease in yeast – S. cerevisiae, luminescence, Hsp90 inhibitor project, dose response (AID 2400); assay type: functional, cell-based;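 note: beta-galactosidase luminescence from glucocorticoid response element reporter as proxy for Hsp90 function; inhibitor potency where signal loss means Hsp90 inhibition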
Chain of ATP-dependent molecular chaperone HSP82 (C4YTQ8 whole entry): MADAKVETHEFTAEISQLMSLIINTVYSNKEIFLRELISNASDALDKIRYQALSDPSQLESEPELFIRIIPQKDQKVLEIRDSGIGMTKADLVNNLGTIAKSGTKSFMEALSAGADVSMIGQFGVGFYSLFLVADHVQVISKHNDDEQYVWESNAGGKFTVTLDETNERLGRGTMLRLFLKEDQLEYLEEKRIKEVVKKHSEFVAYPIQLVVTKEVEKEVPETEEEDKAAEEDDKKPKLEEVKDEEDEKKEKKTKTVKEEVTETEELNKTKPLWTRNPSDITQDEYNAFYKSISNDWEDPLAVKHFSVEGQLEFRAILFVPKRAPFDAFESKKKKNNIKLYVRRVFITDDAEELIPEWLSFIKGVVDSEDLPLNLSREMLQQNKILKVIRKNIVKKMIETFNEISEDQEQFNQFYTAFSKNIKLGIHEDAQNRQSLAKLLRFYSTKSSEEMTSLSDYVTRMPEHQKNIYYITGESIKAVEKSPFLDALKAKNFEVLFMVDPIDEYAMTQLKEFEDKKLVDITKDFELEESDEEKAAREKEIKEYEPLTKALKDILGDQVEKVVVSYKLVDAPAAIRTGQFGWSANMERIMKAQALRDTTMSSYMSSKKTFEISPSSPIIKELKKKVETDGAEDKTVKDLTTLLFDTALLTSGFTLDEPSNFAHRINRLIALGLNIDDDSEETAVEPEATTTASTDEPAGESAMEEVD

[13] = viability of uninfected HEp-2 cells – cell-based, HTS, cytotoxicity control for RSV inhibitor project, dose response (AID 2410); assay type: functional; conditions: human respiratory syncytial virus
Cytochrome P450 2C19 = Cytochrome P450 2C19 (Homo sapiens, UniProt P33261); assay: Cytochrome panel assay with activity outcomes. Panel member name: p450-cyp2c19 Compounds with AC50 equal or less than 10 uM are considered active; assay type: functional; conditions: read-out: AC50
Chain of Cytochrome P450 2C19 (P33261 whole entry): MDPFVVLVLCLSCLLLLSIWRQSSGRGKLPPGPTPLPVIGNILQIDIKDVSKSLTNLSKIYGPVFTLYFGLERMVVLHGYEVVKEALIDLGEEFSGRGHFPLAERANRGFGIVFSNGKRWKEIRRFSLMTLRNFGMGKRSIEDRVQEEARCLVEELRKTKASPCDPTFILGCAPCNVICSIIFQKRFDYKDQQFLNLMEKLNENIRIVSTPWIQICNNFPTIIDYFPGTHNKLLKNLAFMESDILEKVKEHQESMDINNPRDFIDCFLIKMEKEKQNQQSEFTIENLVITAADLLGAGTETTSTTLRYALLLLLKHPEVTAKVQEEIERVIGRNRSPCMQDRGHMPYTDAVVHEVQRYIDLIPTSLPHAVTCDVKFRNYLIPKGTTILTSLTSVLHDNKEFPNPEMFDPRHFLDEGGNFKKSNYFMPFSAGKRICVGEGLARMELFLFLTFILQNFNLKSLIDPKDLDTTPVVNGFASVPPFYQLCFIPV

Cytochrome P450 2C9 = Cytochrome P450 2C9 (Homo sapiens, UniProt P11712)
Chain of Cytochrome P450 2C9 (P11712 whole entry): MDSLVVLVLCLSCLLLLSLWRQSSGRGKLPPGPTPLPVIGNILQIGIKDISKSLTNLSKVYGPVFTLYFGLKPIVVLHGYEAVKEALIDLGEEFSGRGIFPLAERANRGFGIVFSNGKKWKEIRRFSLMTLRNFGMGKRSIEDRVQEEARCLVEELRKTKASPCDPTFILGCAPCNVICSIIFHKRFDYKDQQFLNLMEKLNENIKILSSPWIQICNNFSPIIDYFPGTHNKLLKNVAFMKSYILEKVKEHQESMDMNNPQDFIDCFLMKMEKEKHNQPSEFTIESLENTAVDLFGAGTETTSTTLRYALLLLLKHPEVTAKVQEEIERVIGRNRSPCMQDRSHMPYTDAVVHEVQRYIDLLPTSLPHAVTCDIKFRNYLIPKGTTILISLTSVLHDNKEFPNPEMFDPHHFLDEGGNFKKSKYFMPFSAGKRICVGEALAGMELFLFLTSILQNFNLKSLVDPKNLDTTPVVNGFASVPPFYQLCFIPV

Beta-galactosidase = Beta-galactosidase (Escherichia coli, UniProt Q8VNN2); assay: PubChem AID 485352; assay type: functional
Chain of Beta-galactosidase (Q8VNN2 whole entry): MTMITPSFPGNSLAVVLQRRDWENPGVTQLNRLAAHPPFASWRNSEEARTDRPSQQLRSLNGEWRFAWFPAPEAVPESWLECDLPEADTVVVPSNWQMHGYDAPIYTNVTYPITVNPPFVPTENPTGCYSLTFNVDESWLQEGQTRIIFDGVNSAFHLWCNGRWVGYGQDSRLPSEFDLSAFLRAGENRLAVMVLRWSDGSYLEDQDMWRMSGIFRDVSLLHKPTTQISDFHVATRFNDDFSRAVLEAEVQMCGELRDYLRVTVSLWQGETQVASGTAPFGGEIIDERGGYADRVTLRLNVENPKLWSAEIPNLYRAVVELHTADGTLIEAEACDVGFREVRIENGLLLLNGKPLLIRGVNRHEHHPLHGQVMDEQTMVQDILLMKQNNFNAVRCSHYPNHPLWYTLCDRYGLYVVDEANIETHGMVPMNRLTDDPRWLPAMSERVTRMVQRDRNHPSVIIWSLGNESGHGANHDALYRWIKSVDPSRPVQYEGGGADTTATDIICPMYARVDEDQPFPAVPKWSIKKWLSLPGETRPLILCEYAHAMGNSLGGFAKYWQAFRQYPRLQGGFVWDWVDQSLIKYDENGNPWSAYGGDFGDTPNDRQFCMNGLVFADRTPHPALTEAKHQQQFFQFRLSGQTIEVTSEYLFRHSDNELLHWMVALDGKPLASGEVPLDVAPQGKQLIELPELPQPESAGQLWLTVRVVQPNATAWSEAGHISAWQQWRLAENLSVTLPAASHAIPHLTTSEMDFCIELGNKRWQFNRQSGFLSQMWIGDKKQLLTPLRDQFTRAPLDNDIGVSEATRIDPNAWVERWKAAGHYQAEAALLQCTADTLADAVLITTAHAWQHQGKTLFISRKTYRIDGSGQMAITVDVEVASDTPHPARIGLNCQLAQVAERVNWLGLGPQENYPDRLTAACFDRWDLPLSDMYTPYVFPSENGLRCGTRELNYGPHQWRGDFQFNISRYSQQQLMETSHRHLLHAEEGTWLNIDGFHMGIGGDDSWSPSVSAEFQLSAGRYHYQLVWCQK

[14] = target: T2, Type-1 angiotensin II receptor (Homo sapiens, UniProt P30556); assay: antagonism of angiotensin II type 1 receptor – cell-based, uHTS hits, selectivity assay for APJ receptor antagonist project, dose response (AID 463214); assay type: functional;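 note: antagonist potency against angiotensin II stimulated AT1 response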
T2 sequence (P30556 whole entry): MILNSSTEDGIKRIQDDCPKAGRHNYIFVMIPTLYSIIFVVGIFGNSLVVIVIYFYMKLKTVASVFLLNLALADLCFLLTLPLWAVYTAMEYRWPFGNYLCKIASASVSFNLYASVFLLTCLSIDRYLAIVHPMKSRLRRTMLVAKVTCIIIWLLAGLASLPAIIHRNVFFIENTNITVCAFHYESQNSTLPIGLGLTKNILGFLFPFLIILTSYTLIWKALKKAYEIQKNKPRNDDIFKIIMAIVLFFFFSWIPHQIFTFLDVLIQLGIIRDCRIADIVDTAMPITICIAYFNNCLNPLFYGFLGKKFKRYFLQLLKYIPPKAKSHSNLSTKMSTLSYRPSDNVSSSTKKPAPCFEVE

In the case of `O=C(C1=C[C@H](c2ccc(C(F)(F)F)cc2)C[C@H](OCc2ccc(CO)cc2)O1)N1CCN(Cc2ccc3c(c2)OCO3)CC1`, the EC50 [1] is reported as 0.265 µM (active), the EC50 [2] is reported as > 60 µM (not active) and the AC50 [3] is reported as 4.74 µM (active). The AC50 [4] was 25.8 µM (active).

With `c1ccc(NNc2ccccc2)cc1` [HYDRAZOBENZENE] the AC50 [5] was 35.5 µM (inconclusive).

For `Cc1cc(C(C)(C)C)c(O)c(C(C)(C)C)c1` [BUTYLATED HYDROXYTOLUENE], the AC50 [5] was 11.2 µM (inconclusive).

With `COc1cccc(/C=N/NC(=O)C(=O)Nc2ccccc2OC(F)(F)C(F)F)c1O` the EC50 [6] was > 160 µM (inactive), the EC50 (cells [7]) was 92.8 µM (active) and the EC50 [8] was 0.46 µM (active). The EC50 (cells [9]) was > 350 µM (not active), the EC50 [10] was > 180 µM (inactive) and the AC50 [11] was 4.2 µM (active). For the same molecule, the AC50 (INS1) was 2.77 µM (active) and the EC50 [12] was 10.6 µM (active).

For `CCCOC(=O)c1c(-c2ccccc2)nc(CC)c(C(=O)SCC)c1CCC`, the CC50 [13] was 35.6 µM (active), the AC50 (Cytochrome P450 2C19) was 39.8 µM (inconclusive) and the AC50 (Cytochrome P450 2C9) was 7.94 µM (inconclusive). For the same molecule, the AC50 [5] was 15.8 µM (inconclusive).

With `O=C(CNC(=O)c1ccco1)NCC(=O)OCC(=O)c1ccc(Cl)c([N+](=O)[O-])c1` the EC50 (Beta-galactosidase) was > 40 µM (inactive) and the IC50 [14] was 7.54 µM (active).
